According to PMC2443152, “Molecular evolution of B6 enzymes: Binding of pyridoxal-5'-phosphate and Lys41Arg substitution turn ribonuclease A into a model B6 protoenzyme” (BMC Biochemistry, 2008):
Changes are numbered by the printed parent chain. Like-named read-outs stand apart in the source and are kept apart here.

Legend:
[1] = target: T1, bovine pancreatic ribonuclease A (RNase) (Bos taurus, UniProt P61823); experiment: intrinsic (tyrosine) fluorescence quenching titration, nonlinear regression; type: binding; conditions: read-out: Wild-type
T1 construct: gene RNASE1; mature RNase A; recombinant from pET22b(+) NdeI/HindIII in E. coli BL21 (wild type also from bovine pancreas, Sigma type II); no tag mentioned
T1 sequence (P61823 27-150): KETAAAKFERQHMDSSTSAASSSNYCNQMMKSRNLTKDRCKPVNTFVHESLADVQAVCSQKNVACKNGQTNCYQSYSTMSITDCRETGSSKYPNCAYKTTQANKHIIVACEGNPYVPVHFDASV
From the text: (§1) intrinsic (tyrosine) fluorescence quenching titration, nonlinear regression on bovine pancreatic ribonuclease A (RNase)

[2] = target: T2, bovine pancreatic ribonuclease A (RNase) (Bos taurus, UniProt P61823, K67R); experiment: as above; type: binding
T2 construct: gene RNASE1; mature RNase A; recombinant from pET22b(+) NdeI/HindIII in E. coli BL21 (wild type also from bovine pancreas, Sigma type II); no tag mentioned
T2 sequence (P61823 27-150 K67R): T1 sequence (P61823 27-150) with K41R
From the text: as §1

| Kd [1] | Kd ([2]; read-out: K41R) | Kd ([2]; read-out: Wild-type) | Compound |
| --- | --- | --- | --- |
| 120 ± 5 µM | 140 ± 10 µM |  | Cc1ncc(COP(=O)(O)O)c(C=O)c1O [PLP] |
| 106 ± 5 µM | 107 ± 3 µM |  | Cc1ncc(COP(=O)(O)O)c(CN)c1O [PMP] |
| 45 ± 1 µM | 40 ± 3 µM |  | Cc1ncc(COP(=O)(O)O)c(CN[C@H](C)C(=O)O)c1O [PPL-D-alanine] |
| 23 ± 1 µM |  | 23 ± 1 µM | Cc1ncc(COP(=O)(O)O)c(CN[C@@H](C)C(=O)O)c1O [PPL-L-alanine] |
